From PubChem BioAssay (NCI)
“And” between values parts separate entries of the source, which are not always exact repeats. Equal values may be shown once.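 In this assay, cells in 96-well plates receive the compound at five concentrations for 48 hours. Endpoints are linearly interpolated between the surrounding concentrations. Here, GI50 denotes the concentration required for 50% inhibition of growth. TGI denotes the concentration required for complete inhibition of growth.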

Columns and labels:
Assay in all cases: NCI tumour cell line growth inhibition, 48 h
HCT-116 colon = tested on: HCT-116 colon
COLO 205 colon = tested on: COLO 205 colon
HS 578T breast = tested on: HS 578T breast
K-562 leukemia = tested on: K-562 leukemia
SR leukemia = tested on: SR leukemia
BT-549 breast = tested on: BT-549 breast
SK-MEL-28 melanoma = tested on: SK-MEL-28 melanoma
786-0 renal = tested on: 786-0 renal

SMILES | GI50 (HCT-116 colon) | TGI (HCT-116 colon) | GI50 (COLO 205 colon) | TGI (COLO 205 colon) | GI50 (HS 578T breast) | TGI (HS 578T breast) | GI50 (K-562 leukemia) | TGI (K-562 leukemia) | GI50 (SR leukemia) | TGI (SR leukemia) | GI50 (BT-549 breast) | TGI (BT-549 breast) | GI50 (SK-MEL-28 melanoma) | TGI (SK-MEL-28 melanoma) | GI50 (786-0 renal) | TGI (786-0 renal)
O=C(/C=C/c1ccccc1)C(Br)C(Br)c1ccccc1 (configuration not stated) | 0.2 µM | 0.43 µM | 1.54 µM | 3.14 µM | 2.36 µM | 7.7 µM | 0.303 µM | 1.25 µM | 0.455 µM | 2.59 µM | 1.86 µM | 3.39 µM | 2.04 µM | 4.66 µM | 1.91 µM | 4.31 µM
COc1cc2ncn(-c3cc(OCc4ccccc4C(F)(F)F)c(C(=O)N(C)C)s3)c2cc1OC | > 25 µM | > 25 µM | > 16.8 µM | > 25 µM | > 25 µM | > 25 µM | > 21.3 µM | > 25 µM | > 25 µM | > 25 µM | > 21.9 µM | > 25 µM | > 25 µM | > 25 µM | > 25 µM | > 25 µM
O=[N+]([O-])c1cc(Cl)c2[nH]c3c(Cl)cc([N+](=O)[O-])cc3c2c1 | 0.263 µM | 7.12 µM | 0.469 µM | 1.99 µM | 0.609 µM | > 100 µM | 0.243 µM | > 100 µM | 0.32 µM | > 100 µM | 0.326 µM | 5.34 µM | 0.47 µM | > 100 µM | 0.294 µM | 16.7 µM
COc1cc(C2SCCCCCCCCCCSC(c3ccc(O)c(OC)c3)SCCCCCCCCCCS2)ccc1O (configuration not stated) | – | > 100 µM | – | > 100 µM | – | – | – | > 100 µM | – | > 100 µM | – | > 100 µM | – | > 100 µM | – | > 100 µM
COc1cccc(/C(C#N)=C/c2nc3c(N4CCOCC4)nc(Cl)nc3n2C)c1 | 0.171 µM | 0.433 µM | 1.33 µM | 3.09 µM | 1.59 µM | 5.88 µM | 0.447 µM | 10.3 µM | 0.355 µM | 2.44 µM | 0.631 µM | 2.04 µM | 1.61 µM | 3.1 µM | 1.59 µM | 3.05 µM
Cc1[nH]nc(C(F)(F)F)c1N=NN(C)C | – | 4.99 µM | – | 10.7 µM | – | 44.6 µM | – | 11.9 µM | – | 18.8 µM | – | 24.9 µM | – | 33 µM | – | 3.09 µM
CC1CCC2(NC1)OC1CC3C4CC=C5CC(O)CCC5(C)C4CCC3(C)C1C2C (configuration not stated) | – | 53.5 µM and > 68.1 µM | – | > 100 µM | – | > 100 µM and 37 µM | – | > 100 µM | – | 9.63 µM and 12.4 µM | – | > 100 µM | 56.4 µM and 25.6 µM | > 100 µM | 14.5 µM and 3.24 µM | 30.1 µM and 11.9 µM
CCCCCCCCOC(=O)CC[C@@H](C)[C@H]1CC[C@H]2[C@@H]3[C@H](OC(=O)CCN)C[C@@H]4C[C@H](OC(=O)CCN)CC[C@]4(C)[C@H]3C[C@H](OC(=O)CCN)[C@]12C | 2.43 µM | 5.43 µM | 4.74 µM | 20.6 µM | – | – | – | – | – | – | 20.4 µM | 46.9 µM | 3.52 µM | 15.1 µM | 15 µM | 37.1 µM
COc1ccc(S(=O)(=O)N2CCN(C(=O)c3ccc(-c4ccccc4)cc3)CC2C(=O)NO)cc1 (configuration not stated) | 2.92 µM and 25.5 µM | – | – | 12.5 µM and > 100 µM | – | – | – | – | – | – | 2.48 µM | 6.69 µM | – | 12.5 µM and > 100 µM | – | 12.4 µM and > 100 µM
O=C(O)c1ccc(CI)cc1 | – | 28.1 µM | – | 32.4 µM | – | > 100 µM | – | 74.6 µM | – | 59.1 µM | – | – | – | 31.9 µM | – | 10.8 µM
